Counter-ions that a name gives are not always drawn.

The subject of one assay is Acinetobacter baumannii ATCC17961. Description: Antimicrobial susceptibility testing: 90% growth inhibitory concentration (IC90) determination. The assay is classed as cell-based. To be noted: Acinetobacter baumannii, ATCC17961, 16 h, 90% growth inhibitory concentration, Acinetobacter baumannii ATCC17961, Iso-Sensitest broth, OD 600 nm over 16 h; read-out: ATCC 17961 IC90. An outline of the steps: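 Growth inhibition derived in log phase from OD600 kinetics (every 20 minutes, 16h, 35±2° C) of ATCC17961 in Iso-Sensitest medium, inoculum ~5×10^5 CFU/ml. Compounds tested as twofold series, 10 points (e.g. 50 to 0.097 μM final); IC90 and IC50 reported.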
Turning to `Cc1n[nH]cc1-c1ccc(-c2cnc(C(=O)Nc3ccc(C(=O)N4CCN(C(=O)C[N+]5(C)CCCC5)CC4)c(Cl)c3)n2C)c(F)c1F` [Example D15, N-[3-chloro-4-[4-[2-(1-methylpyrrolidin-1-ium-1-yl)acetyl]piperazine-1-carbonyl]phenyl]-5-[2,3-difluoro-4-(3-methyl-1H-pyrazol-4-yl)phenyl]-1-methyl-imidazole-2-carboxamide; formate], the concentration for an effect of 90% (IC90) (as a rule, the concentration needed for an effect of 90%) was found to be 100 nM.

`COc1ccc(-c2[nH]ncc2-c2ccc(-c3cnc(C(=O)Nc4ccc(C(=O)N5CCN(C(=O)C6CC[N+](C)(C)CC6)CC5)c(Cl)c4)n3C)c(F)n2)cc1` [Example F59, N-[3-chloro-4-[4-(1,1-dimethylpiperidin-1-ium-4-carbonyl)piperazine-1-carbonyl]phenyl]-5-[2-fluoro-6-[5-(4-methoxyphenyl)-1H-pyrazol-4-yl]-3-pyridyl]-1-methyl-imidazole-2-carboxamide; formate]: the concentration for an effect of 90% (IC90) was 750 nM.

`Cc1n[nH]cc1-c1ccc(-c2cnc(C(=O)Nc3ccc(C(=O)N4CCN(C(=O)CN(C)C)CC4)c(Cl)c3)n2C)c(F)c1F` [Example D34, N-[3-chloro-4-[4-[2-(dimethylamino)acetyl]piperazine-1-carbonyl]phenyl]-5-[2,3-difluoro-4-(3-methyl-1H-pyrazol-4-yl)phenyl]-1-methyl-imidazole-2-carboxamide; formic acid]: the IC90 is 110 nM.

Consider `COCCn1ncc(-c2ccc(-c3cnc(C(=O)Nc4ccc(C(=O)N5CCN(C(=O)C6CCNCC6)CC5)c(Cl)c4)n3C)c(F)c2C)c1C` [Example E3, N-[3-chloro-4-[4-(piperidine-4-carbonyl)piperazine-1-carbonyl]phenyl]-5-[2-fluoro-4-[1-(2-methoxyethyl)-5-methyl-pyrazol-4-yl]-3-methyl-phenyl]-1-methyl-imidazole-2-carboxamide; formic acid], for which the IC90 was 490 nM.

For `COCCn1ncc(-c2ccc(-c3cnc(C(=O)Nc4ccc(C(=O)N[C@H]5[C@@H]6CN(C(=O)N[C@@H]7CNC[C@H]7O)C[C@@H]65)c(Cl)c4)n3C)c(F)c2F)c1C` [Example E22, (1S,5R)-6-[[2-chloro-4-[[5-[2,3-difluoro-4-[1-(2-methoxyethyl)-5-methyl-pyrazol-4-yl]phenyl]-1-methyl-imidazole-2-carbonyl]amino]benzoyl]amino]-N-[(3R,4R)-4-hydroxypyrrolidin-3-yl]-3-azabicyclo[3.1.0] hexane-3-carboxamide], the concentration for an effect of 90% (IC90) came out at 59 nM.

On to `Cn1c(-c2ccc(-c3cn(CCC(N)=O)nc3C(F)(F)F)c(F)c2F)cnc1C(=O)Nc1ccc(C(=O)N2CCN(C(=O)C3CC[N+](C)(C)CC3)CC2)c(Cl)c1` [Example F1, 5-[4-[1-(3-amino-3-oxo-propyl)-3-(trifluoromethyl)pyrazol-4-yl]-2,3-difluoro-phenyl]-N-[3-chloro-4-[4-(1,1-dimethylpiperidin-1-ium-4-carbonyl)piperazine-1-carbonyl]phenyl]-1-methyl-imidazole-2-carboxamide; formate], for which the IC90 worked out at 330 nM.

As to `COCCn1ncc(-c2ccc(-c3cnc(C(=O)Nc4ccc(C(=O)N5CCN(C(=O)CN6CCCC6)CC5)c(Cl)c4)n3C)c(F)c2F)c1C` [Example D28, N-[3-chloro-4-[4-(2-pyrrolidin-1-ylacetyl)piperazine-1-carbonyl]phenyl]-5-[2,3-difluoro-4-[1-(2-methoxyethyl)-5-methyl-pyrazol-4-yl]phenyl]-1-methyl-imidazole-2-carboxamide; 2,2,2-trifluoroacetic acid], the concentration for an effect of 90% (IC90) came out at 30 nM.

As to `COCCn1ncc(-c2cc(C)c(-c3cnc(C(=O)Nc4ccc(C(=O)N5CCN(C(=O)C6CC[N+](CC(=O)O)(CC7CNC7)CC6)CC5)c(Cl)c4)n3C)cc2Cl)c1C` (stereo not shown) [Example B40, 2-[1-(azetidin-3-ylmethyl)-4-[4-[2-chloro-4-[[5-[5-chloro-4-[1-(2-methoxyethyl)-5-methyl-pyrazol-4-yl]-2-methyl-phenyl]-1-methyl-imidazole-2-carbonyl]amino]benzoyl]piperazine-1-carbonyl]piperidin-1-ium-1-yl]acetic acid; formate], the IC90 stood at 1800 nM.

For `CCc1nn(CCOC)cc1-c1ccc(-c2cnc(C(=O)Nc3ccc(C(=O)N4CCN(C(=O)CC5(O)CC[N+](C)(C)CC5)CC4)c(Cl)c3)n2C)c(F)c1F` [Example F24, N-[3-chloro-4-[4-[2-(4-hydroxy-1,1-dimethyl-piperidin-1-ium-4-yl)acetyl]piperazine-1-carbonyl]phenyl]-5-[4-[3-ethyl-1-(2-methoxyethyl)pyrazol-4-yl]-2,3-difluoro-phenyl]-1-methyl-imidazole-2-carboxamide; formate], the IC90 turned out to be 590 nM.

For `Cc1n[nH]cc1-c1ccc(-c2cnc(C(=O)Nc3ccc(C(=O)N4CCN(C(=O)C5CC[N+](C)(C)CC5)CC4)c(Cl)c3)n2C)c(F)c1F` [Example D16, N-[3-chloro-4-[4-(1,1-dimethylpiperidin-1-ium-4-carbonyl)piperazine-1-carbonyl]phenyl]-5-[2,3-difluoro-4-(3-methyl-1H-pyrazol-4-yl)phenyl]-1-methyl-imidazole-2-carboxamide; formate], the 90% effect concentration (IC90) worked out at 150 nM.

In the case of `Cc1n[nH]cc1-c1ccc(-c2cnc(C(=O)Nc3ccc(C(=O)N4CCN(C(=O)C5CC[N+](C)(CC6CNC6)CC5)CC4)c(Cl)c3)n2C)c(F)c1F` (stereo not shown) [Example J1, N-[4-[4-[1-(azetidin-3-ylmethyl)-1-methyl-piperidin-1-ium-4-carbonyl]piperazine-1-carbonyl]-3-chloro-phenyl]-5-[2,3-difluoro-4-(3-methyl-1H-pyrazol-4-yl)phenyl]-1-methyl-imidazole-2-carboxamide; formate], the IC90 came out at 22 nM.

On to `Cn1c(-c2ccc(-c3cn(CCOC(F)F)nc3C(F)(F)F)c(F)c2F)cnc1C(=O)Nc1ccc(C(=O)N2CCN(C(=O)C3CC[N+](C)(C)CC3)CC2)c(Cl)c1` [Example F6, N-[3-chloro-4-[4-(1,1-dimethylpiperidin-1-ium-4-carbonyl)piperazine-1-carbonyl]phenyl]-5-[4-[1-[2-(difluoromethoxy)ethyl]-3-(trifluoro-methyl)pyrazol-4-yl]-2,3-difluoro-phenyl]-1-methyl-imidazole-2-carboxamide; formate], for which the IC90 is 570 nM.

For `Cn1cc(-c2ccc(-c3cnc(C(=O)Nc4ccc(C(=O)N5CCN(C(=O)C6CCNCC6)CC5)c(Cl)c4)n3C)c(F)c2F)cn1` [Example E20, N-[3-chloro-4-[4-(piperidine-4-carbonyl)piperazine-1-carbonyl]phenyl]-5-[2,3-difluoro-4-(1-methyl-pyrazol-4-yl)phenyl]-1-methyl-imidazole-2-carboxamide], the concentration for an effect of 90% (IC90) was determined as 530 nM.

Consider `COCCn1ncc(-c2ccc(-c3cnc(C(=O)Nc4ccc(C(=O)N5CCN(C(=O)[C@@H]6C[C@@H](O)C[N+]6(C)C)CC5)c(Cl)c4)n3C)c(F)c2F)c1C` [Example F15, N-[3-chloro-4-[4-[(2S,4R)-4-hydroxy-1,1-dimethyl-pyrrolidin-1-ium-2-carbonyl]piperazine-1-carbonyl]phenyl]-5-[2,3-difluoro-4-[1-(2-methoxyethyl)-5-methyl-pyrazol-4-yl]phenyl]-1-methyl-imidazole-2-carboxamide; 2,2,2-trifluoroacetate], for which the concentration for an effect of 90% (IC90) is 55 nM.

Consider `Cn1c(-c2ccc(-c3cn[nH]c3C3=CCOCC3)c(F)c2F)cnc1C(=O)Nc1ccc(C(=O)N2CCN(C(=O)C3CC[N+](C)(C)CC3)CC2)c(Cl)c1` [Example I7, N-[3-chloro-4-[4-(1,1-dimethylpiperidin-1-ium-4-carbonyl)piperazine-1-carbonyl]phenyl]-5-[4-[5-(3,6-dihydro-2H-pyran-4-yl)-1H-pyrazol-4-yl]-2,3-difluoro-phenyl]-1-methyl-imidazole-2-carboxamide;formate], for which the 90% effect concentration (IC90) turned out to be 760 nM.

Consider `COCCn1ncc(-c2ccc(-c3cnc(C(=O)Nc4ccc(C(=O)N5CCN(C(=O)C67CC(N)(C6)C7)CC5)c(Cl)c4)n3C)c(F)c2F)c1C` [Example D30, N-[4-[4-(3-aminobicyclo[1.1.1]pentane-1-carbonyl)piperazine-1-carbonyl]-3-chloro-phenyl]-5-[2,3-difluoro-4-[1-(2-methoxyethyl)-5-methyl-pyrazol-4-yl]phenyl]-1-methyl-imidazole-2-carboxamide; 2,2,2-trifluoroacetic acid], for which the IC90 amounted to 240 nM.

In the case of `COCCn1cc(-c2ccc(-c3cnc(C(=O)Nc4ccc(C(=O)N5CCN(C(=O)C[N+]6(C)CCC(C(N)=O)C6)CC5)c(Cl)c4)n3C)c(F)c2F)c(C)n1` (stereo not shown) [Example C7, N-[4-[4-[2-(3-carbamoyl-1-methyl-pyrrolidin-1-ium-1-yl)acetyl]piperazine-1-carbonyl]-3-chloro-phenyl]-5-[2,3-difluoro-4-[1-(2-methoxyethyl)-3-methyl-pyrazol-4-yl]phenyl]-1-methyl-imidazole-2-carboxamide; formate], the 90% effect concentration (IC90) was determined as 140 nM.

Staying with this assay, now noted: Acinetobacter baumannii, ATCC17961, 16 h, read-out: ATCC 17961 IC90.
On to `Cc1n[nH]cc1-c1ccc(-c2cnc(C(=O)Nc3ccc(C(=O)N4CCN(C(=O)C5CCC[N+]5(C)CCO)CC4)c(Cl)c3)n2C)c(F)c1F` (stereo not shown) [Example B35, N-[3-chloro-4-[4-[1-(2-hydroxyethyl)-1-methyl-pyrrolidin-1-ium-2-carbonyl]piperazine-1-carbonyl]phenyl]-5-[2,3-difluoro-4-(3-methyl-1H-pyrazol-4-yl)phenyl]-1-methyl-imidazole-2-carboxamide; 2,2,2-trifluoroacetate], for which the 90% effect concentration (IC90) turned out to be 130 nM.

On to `COCCn1cc(-c2ccc(-c3cnc(C(=O)Nc4ccc(C(=O)N5CCN(C(=O)C6CC[N+](C)(CC(N)=O)CC6)CC5)c(Cl)c4)n3C)c(F)c2F)c(C)n1` (stereo not shown) [Example B1, N-[4-[4-[1-(2-amino-2-oxo-ethyl)-1-methyl-piperidin-1-ium-4-carbonyl]piperazine-1-carbonyl]-3-chloro-phenyl]-5-[2,3-difluoro-4-[1-(2-methoxyethyl)-3-methyl-pyrazol-4-yl]phenyl]-1-methyl-imidazole-2-carboxamide; formate], for which the concentration for an effect of 90% (IC90) was 190 nM.

(Values after patent US12421211B2, “Heterocyclic compounds” (Hoffmann-La Roche Inc., priority 2021, dated 2025).)
